Laboratory results taken from US8992932B2, “Binder-drug conjugates (ADCs) and use thereof” (Seattle Genetics, Inc., priority 2011, dated 2015).
Where “and” joins values, the source holds several entries; their conditions need not be identical. Identical values can stand only once. Counter-ions that a name gives are not always drawn. Square brackets hold non-standard residues; d marks the D form. Peptide text beside a SMILES is read from it. * marks the point of attachment. X2 = CC(C)[C@@H](C(=O)*)N(C)CCCCCCN1C(=O)CC(SC[C@H](N)C(=O)O)C1=O; X3 = CC(C)[C@@H](C(=O)*)N(C)CCOCCOCCOCCC(=O)NCCCC[C@H](N)C(=O)O; X1 = CC(C)[C@@H](C(=O)*)N(C)CCCCCC(=O)NCCCC[C@H](N)C(=O)O; Dolaproine = CO[C@@H]([C@@H]1CCCN1)[C@@H](C)C(=O)O; Dil = CC[C@H](C)[C@H](NC)[C@@H](CC(=O)O)OC; Oxazinan2yl(1,2) = C1CCN(*)OC1; NMeV = CN[C@H](C(=O)O)C(C)C

What was measured:
[1] = tested on: Caco-2 cells; experiment: Cell permeability flux assay using Caco-2 cells; assay type: in vitro ADME; details: basal to apical, 2 hours
Protocol: The cell permeability of a substance can be investigated by means of in vitro testing in a flux assay using Caco-2 cells [M. D. Troutman and D R Thakker, Pharm. Res. 20 (8), 1210-1224 (2003)]. For this purpose, the cells were cultured for 15-16 days on 24-well filter plates. For the determination of permeation, the respective working example was applied in a HEPES buffer to the cells either apically (A) or basally (B) and incubated for 2 hours. After 0 hours and after 2 hours, samples were taken from the cis and trans compartments. The samples were separated by HPLC (Agilent 1200, Boblingen, Germany) using reverse phase columns. The HPLC system was coupled via a Turbo Ion Spray Interface to a Triple Quadropol mass spectrometer API 4000 (Applied Biosystems Applera, Darmstadt, Germany). The permeability was evaluated on the basis of a Papp value, which was calculated using the formula published by Schwab et al. [D. Schwab et al., J. Med. Chem. 46, 1716-1725 (2003)].

[2] = tested on: tubulin; experiment: Fluorescence-based microtubule polymerisation assay (DAPI); assay type: biochemical
Protocol: Tubulin polymerization was investigated using the “Fluorescence-based Microtubule Polymerisation Assay Kit” from Cytoskeleton (Denver, Colo., USA; order number: BK011). With this assay, GTP is added to unpolymerized tubulin, allowing polymerization to take place spontaneously. The assay is based on the binding of the fluorophore 4′,6-diamidino-2-phenylindole (DAPI) to tubulin. Free and bound DAPI can be differentiated on the basis of different emission spectra.
[…] In addition to the buffer control, paclitaxel, with a polymerization-increasing effect, and vinblastin, with a polymerization inhibiting effect, were run additionally as assay controls. Measurement was carried out using 96-well plates with a half base area. The kinetics of the tubulin polymerization were monitored in a Fluorimeter at 37° C. for 1 hour. The excitation wavelength was 355 nm, and emission was monitored at 460 nm. For the region of linear increase within the first 10 minutes, a calculation was made of the change in fluorescence per minute (AF/min), which represents the polymerization rate of the microtubuli. The potency of the test substances was quantified on the basis of their respective reduction of the polymerization rate.

| Compound | Papp (B-A) [1] | further results |
| --- | --- | --- |
| CC[C@H](C)[C@@H]([C@@H](CC(=O)N1CCC[C@H]1[C@H](OC)[C@@H](C)C(=O)N[C@@H](Cc1c[nH]c2ccccc12)C(N)=O)OC)N(C)C(=O)[C@@H](NC(=O)[C@H](C(C)C)N(C)CCCC(=O)NNC(=O)CCCCCN1C(=O)CC(SC[C@H](N)C(=O)O)C1=O)C(C)C (stereo partly drawn) [Example 71, N-(4-{2-[6-(3-{[(2R)-2-Amino-2-carboxyethyl]sulphanyl}-2,5-dioxopyrrolidin-1-yl)hexanoyl]hydrazino}-4-oxobutyl)-N-methyl-L-valyl-N-[(3R,4S,5S)-1-{(2S)-2-[(1R,2R)-3-{[(2S)-1-amino-3-(1H-indol-3-yl)-1-oxopropan-2-yl]amino}-1-methoxy-2-methyl-3-oxopropyl]pyrrolidin-1-yl}-3-methoxy-5-methyl-1-oxoheptan-4-yl]-N-methyl-L-valinamide] | 0.2 ×10⁻⁶ cm/s | – |
| CC[C@H](C)[C@@H]([C@@H](CC(=O)N1CCC[C@H]1[C@H](OC)[C@@H](C)C(=O)N[C@@H](Cc1c[nH]c2ccccc12)C(=O)O)OC)N(C)C(=O)[C@@H](NC(=O)[C@H](C(C)C)N(C)CCCCCC(=O)NCCCC[C@H](N)C(=O)O)C(C)C [Example 116, N-(6-{[(55)-5-Amino-5-carboxypentyl]amino}-6-oxohexyl)-N-methyl-L-valyl-N-[(3R,4S,5S)-1-{(2S)-2-[(1R,2R)-3-{[(1S)-1-carboxy-2-(1H-indol-3-yl)ethyl]amino}-1-methoxy-2-methyl-3-oxopropyl]pyrrolidin-1-yl}-3-methoxy-5-methyl-1-oxoheptan-4-yl]-N-methyl-L-valinamide] (X1-V[Dil][Dolaproine]W-OH) | 0.1 ×10⁻⁶ cm/s | – |
| CC[C@H](C)[C@@H]([C@@H](CC(=O)N1CCC[C@H]1[C@H](OC)[C@@H](C)C(=O)N[C@@H](Cc1c[nH]c2ccccc12)C(=O)N1CCCCO1)OC)N(C)C(=O)[C@@H](NC(=O)[C@H](C(C)C)N(C)CCOCCOCCOCCC(=O)NCCCC[C@H](N)C(=O)O)C(C)C [Example 117, N-[(18S)-18-Amino-18-carboxy-12-oxo-3,6,9-trioxa-13-azaoctadec-1-yl]-N-methyl-L-valyl-N-[(3R,4S,5S)-1-{(2S)-2-[(1R,2R)-3-{[(2S)-3-(1H-indol-3-yl)-1-(1,2-oxazinan-2-yl)-1-oxopropan-2-yl]amino}-1-methoxy-2-methyl-3-oxopropyl]pyrrolidin-1-yl}-3-methoxy-5-methyl-1-oxoheptan-4-yl]-N-methyl-L-valinamide trifluoroacetate] (X3-V[Dil][Dolaproine]W-{Oxazinan2yl(1,2)}) | – | Tubulin polymerization in the presence of toxophore in [%]. Tubulin polymerization rate at 1 μM MMAF set at 100% ([2]; toxophore 1 μM, trifluoroacetate): 60% and 78% |
| CC[C@H](C)[C@@H]([C@@H](CC(=O)N1CCC[C@H]1[C@H](OC)[C@@H](C)C(=O)N[C@@H](Cc1ccccc1)C(=O)O)OC)N(C)C(=O)[C@@H](NC(=O)[C@@H](NC)C(C)C)C(C)C [MMAF, monomethylauristatin F, reference compound] (H-[NMeV]V[Dil][Dolaproine]F-OH) | – | Effect on tubulin polymerization (in words) [2]: inhibit tubulin polymerization as a function of their concentration |
| CC[C@H](C)[C@@H]([C@@H](CC(=O)N1CCC[C@H]1[C@H](OC)[C@@H](C)C(=O)N[C@@H](Cc1c[nH]c2ccccc12)C(=O)O)OC)N(C)C(=O)[C@@H](NC(=O)[C@H](C(C)C)N(C)CCCC(=O)NNC(=O)CCCCCN1C(=O)CC(SC[C@H](N)C(=O)O)C1=O)C(C)C (stereo partly drawn) [Example 72, N-(4-{2-[6-(3-{[(2R)-2-Amino-2-carboxyethyl]sulphanyl}-2,5-dioxopyrrolidin-1-yl)hexanoyl]hydrazino}-4-oxobutyl)-N-methyl-L-valyl-N-[(3R,4S,5S)-1-{(2S)-2-[(1R,2R)-3-{[(1S)-1-carboxy-2-(1H-indol-3-yl)ethyl]amino}-1-methoxy-2-methyl-3-oxopropyl]pyrrolidin-1-yl}-3-methoxy-5-methyl-1-oxoheptan-4-yl]-N-methyl-L-valinamide] | 0.16 ×10⁻⁶ cm/s | – |
| CC[C@H](C)[C@@H]([C@@H](CC(=O)N1CCC[C@H]1[C@H](OC)[C@@H](C)C(=O)N[C@@H](Cc1c[nH]c2ccccc12)C(=O)NCc1ccccc1)OC)N(C)C(=O)[C@@H](NC(=O)[C@H](C(C)C)N(C)CCCC(=O)NNC(=O)CCCCCN1C(=O)CC(SC[C@H](N)C(=O)O)C1=O)C(C)C (stereo partly drawn) [Example 77, N-(4-{2-[6-(3-{[(2R)-2-Amino-2-carboxyethyl]sulphanyl}-2,5-dioxopyrrolidin-1-yl)hexanoyl]hydrazino}-4-oxobutyl)-N-methyl-L-valyl-N-[(3R,4S,5S)-1-{(2S)-2-[(1R,2R)-3-{[(2S)-1-(benzylamino)-3-(1H-indol-3-yl)-1-oxopropan-2-yl]amino}-1-methoxy-2-methyl-3-oxopropyl]pyrrolidin-1-yl}-3-methoxy-5-methyl-1-oxoheptan-4-yl]-N-methyl-L-valinamide] | 0.7 ×10⁻⁶ cm/s | – |
| CC[C@H](C)[C@@H]([C@@H](CC(=O)N1CCC[C@H]1[C@H](OC)[C@@H](C)C(=O)N[C@@H](Cc1ccc(O)cc1)C(=O)N1CCCCO1)OC)N(C)C(=O)[C@@H](NC(=O)[C@H](C(C)C)N(C)CCCCCC(=O)NCCCC[C@H](N)C(=O)O)C(C)C [Example 127, N-(6-{[(55)-5-Amino-5-carboxypentyl]amino}-6-oxohexyl)-N-methyl-L-valyl-N-[(3R,4S,5S)-1-{(2S)-2-[(1R,2R)-3-{[(2S)-3-(4-hydroxyphenyl)-1-(1,2-oxazinan-2-yl)-1-oxopropan-2-yl]amino}-1-methoxy-2-methyl-3-oxopropyl]pyrrolidin-1-yl}-3-methoxy-5-methyl-1-oxoheptan-4-yl]-N-methyl-L-valinamide trifluoroacetate] (X1-V[Dil][Dolaproine]Y-{Oxazinan2yl(1,2)}) | 0.15 ×10⁻⁶ cm/s | – |
| CC[C@H](C)[C@@H]([C@@H](CC(=O)N1CCC[C@H]1[C@H](OC)[C@@H](C)C(=O)N[C@@H](Cc1c[nH]c2ccccc12)C(=O)N1CCCCO1)OC)N(C)C(=O)[C@@H](NC(=O)[C@H](C(C)C)N(C)CCCCCC(=O)NCCCC[C@H](N)C(=O)O)C(C)C [Example 115, N-(6-{[(55)-5-Amino-5-carboxypentyl]amino}-6-oxohexyl)-N-methyl-L-valyl-N-[(3R,4S,5S)-1-{(2S)-2-[(1R,2R)-3-{[(2S)-3-(1H-indol-3-yl)-1-(1,2-oxazinan-2-yl)-1-oxopropan-2-yl]amino}-1-methoxy-2-methyl-3-oxopropyl]pyrrolidin-1-yl}-3-methoxy-5-methyl-1-oxoheptan-4-yl]-N-methyl-L-valinamide trifluoroacetate] (X1-V[Dil][Dolaproine]W-{Oxazinan2yl(1,2)}) | 0.2 ×10⁻⁶ cm/s | – |
| CC[C@H](C)[C@@H]([C@@H](CC(=O)N1CCC[C@H]1[C@H](OC)[C@@H](C)C(=O)N[C@@]1(C(=O)N2CCCCO2)C[C@@H]1c1ccccc1)OC)N(C)C(=O)[C@@H](NC(=O)[C@H](C(C)C)N(C)CCCC(=O)NNC(=O)CCCCCN1C(=O)CC(SC[C@H](N)C(=O)O)C1=O)C(C)C (stereo partly drawn) [Example 73, N-(4-{2-[6-(3-{[(2R)-2-Amino-2-carboxyethyl]sulphanyl}-2,5-dioxopyrrolidin-1-yl)hexanoyl]hydrazino}-4-oxobutyl)-N-methyl-L-valyl-N-[(3R,4S,5S)-3-methoxy-1-{(2S)-2-[(1R,2R)-1-methoxy-2-methyl-3-{[(1S,2R)-1-(1,2-oxazinan-2-ylcarbonyl)-2-phenylcyclopropyl]amino}-3-oxopropyl]pyrrolidin-1-yl}-5-methyl-1-oxoheptan-4-yl]-N-methyl-L-valinamide] | 0.25 ×10⁻⁶ cm/s | – |
| CC[C@H](C)[C@@H]([C@@H](CC(=O)N1CCC[C@H]1[C@H](OC)[C@@H](C)C(=O)N[C@@H](Cc1c[nH]c2ccccc12)C(N)=O)OC)N(C)C(=O)[C@@H](NC(=O)[C@H](C(C)C)N(C)CCCCCCN1C(=O)CC(SC[C@H](N)C(=O)O)C1=O)C(C)C (stereo partly drawn) [Example 74, N-[6-(3-{[(2R)-2-Amino-2-carboxyethyl]sulphanyl}-2,5-dioxopyrrolidin-1-yl)hexyl]-N-methyl-L-valyl-N-[(3R,4S,5S)-1-{(2S)-2-[(1R,2R)-3-{[(2S)-1-amino-3-(1H-indol-3-yl)-1-oxopropan-2-yl]amino}-1-methoxy-2-methyl-3-oxopropyl]pyrrolidin-1-yl}-3-methoxy-5-methyl-1-oxoheptan-4-yl]-N-methyl-L-valinamide] (X2-V[Dil][Dolaproine]W-NH2) | 0.5 ×10⁻⁶ cm/s | – |
